Reference: patent US11946094B2, “Combination therapies and methods of use thereof” (Augusta University Research Institute, Inc., priority 2017, dated 2024)

Columns and labels:
OVCAR-8 cells [1] = assay: Drug titration (GI50) with S100A11 siRNA knockdown versus sham control; format: cell-based; conditions: serial dilution of drug, three replicates
Description: Statistical analyses were performed using the R language and environment for statistical computing (R version 3.3.1; R Foundation for Statistical Computing) and Microsoft Excel. Student's T-test (two-tailed, unpaired) was used to calculate p-values for confirmation of drug effect. GI50 values were calculated using a four-parameter logistic function to obtain a classical “s” curve for drug titrations using SigmaPlot (Systat Software, San Jose, CA). Heatmaps were created using the R package “pheatmap”. Clustering was done with WPGMA hierarchical clustering. QIAGEN's Ingenuity Pathway Analysis (IPA®, QIAGEN Redwood City) was utilized for assessment of network and pathway contributions of top genes identified using the NCI-60 correlations.
An important measure of synergism is the dosage reduction of a therapeutic compound by another agent. Titration screening with several compounds was performed to compare growth curves with and without knockdown of S100A11 or KLHL5. […] KLHL5 also was synergistic with other cell cycle inhibitors and PI3K-AKT-mTOR inhibitors. Titration curves and calculation of GI50 were performed for twenty-four compounds.

OVCAR-8 cells [2] = assay: Drug-siRNA combination screen: 346-compound anticancer library at 100 nM, CCK-8 viability; conditions: OVCAR-8; for Score (sum of observed SD values for 18 genes): drug 100 nM plus siRNA knockdown of each of 18 genes, distance VAB−VA×VB in SD, single gene contributes at most +5 / −5, negative = synergy, positive = antagonism; for synergy / antagonism of drug with gene knockdowns, in words: drug 100 nM, panel of 18 siRNA knockdowns
AB1-HA tumor model = conditions: CTX treatment at Day 9; cited from earlier work

SMILES | dose reduction of GI50 value by S100A11 siRNA versus sham control (OVCAR-8 cells [1]) [fold] | Score (sum of observed SD values for 18 genes) (OVCAR-8 cells [2]) [SD] | synergy / antagonism of drug with gene knockdowns, in words (OVCAR-8 cells [2]) | cure rate (AB1-HA tumor model) [%]
Cn1cc(CNCC2CCN(c3ncc(C(=O)NO)cn3)CC2)c2ccccc21 [JNJ-26481585, Quisinostat] | 5.53 | −2.31 | – | –
O=C(/C=C/c1cccc(S(=O)(=O)Nc2ccccc2)c1)NO [Belinostat] | 5.56 | −20.81 | mostly synergistic | –
O=P1(N(CCCl)CCCl)NCCCO1 (centres unmarked) [Cyclophosphamide] | – | – | – | 75
C[C@H]1C[C@H]2[C@@H]3CCC4=CC(=O)C=C[C@]4(C)[C@H]3C(=O)C[C@]2(C)[C@@]1(O)C(=O)CO [Meprednisone] | – | −25.82 | – | –
CC[C@@H]1C(=O)N(C)c2cnc(Nc3ccc(C(=O)NC4CCN(C)CC4)cc3OC)nc2N1C1CCCC1 [BI2536] | – | 12.6 | – | –
CCC(C)(C)C(=O)O[C@H]1C[C@@H](C)C=C2C=C[C@H](C)[C@H](CC[C@@H]3C[C@@H](O)CC(=O)O3)[C@H]21 [Simvastatin] | – | −20.34 | – | –
Cc1cc(Nc2cc(N3CCN(C)CC3)nc(Sc3ccc(NC(=O)C4CC4)cc3)n2)[nH]n1 [Tozasertib] | – | −4.08 | – | –
Cc1c(C(=O)Nc2ccc(N3C[C@@H](C)O[C@@H](C)C3)nc2)cccc1-c1ccc(OC(F)(F)F)cc1 [Erismodegib] | – | 3.22 | – | –
CCOc1cc2ncc(C#N)c(Nc3ccc(F)c(Cl)c3)c2cc1NC(=O)/C=C/CN(C)C [Pelitinib] | – | -54.75 | – | –
FC(F)c1nc2ccccc2n1-c1nc(N2CCOCC2)nc(N2CCOCC2)n1 [ZSTK474] | – | -52.94 | synergy to the vast majority of genes | –
O=c1cc(-c2cccc3c2Sc2ccccc2S3)oc(N2CCOCC2)c1 [KU-55933] | – | −14.37 | – | –
O=C(NOCC1CC1)c1ccc(F)c(F)c1Nc1ccc(I)cc1Cl [CI-1040] | – | −45.66 | among the top synergistic compounds | –
